Results taken from patent US9248124B2, “Use of inhibitors of IκB kinase for the treatment of cancer” (Millennium Pharmaceuticals, Inc., priority 2001, dated 2016).
Entries after “also recorded” stand apart in the source; their conditions may differ.

Experiments:
[1] = tested on: MM.1S, U266, and RPMI8226 cell lines; experiment: DNA synthesis ([3H]-TdR uptake) in MM cell lines; assay type: cell-based, human; settings: 48 h; FIG. 3B
Experimental: (§1) Proliferation was measured as previously described (Hideshima et al., Blood 96:2943 (2000)). MM cells (3×10^4 cells/well) were incubated in 96-well culture plates (Costar, Cambridge, Mass.) in the presence of media, PS-341, compound 1 and/or Dex or recombinant human IL-6 (Genetics Institute, Cambridge, Mass.) for 48 h at 37° C. DNA synthesis was measured by [^3H]-thymidine ([^3H]-TdR, NEN Products, Boston, Mass.) uptake. Cells were pulsed with [^3H]TdR (0.5 μCi/well) during the last 8 h of 48 h cultures. All experiments were performed in triplicate.
To study the direct effect of compound 1 on MM cells, [3H]-TdR uptake was measured in MM.1S, U266, and RPMI8226 cell lines cultured for 48 h in the presence of compound 1 (1.5-50 μM).

[2] = tested on: p42/44 MAPK phosphorylation; experiment: Immunoblot of IL-6 induced p42/44 MAPK phosphorylation in MM.1S cells; assay type: cell-based, human; settings: IL-6 50 ng/mL for 5 min, compound 1 10 μM 90 min, PS-341 5 μM 60 min, FIG. 5
Experimental: (§2) MM cells were cultured with PS-341 or compound 1; harvested; washed; and lysed using lysis buffer: 50 mM Tris-HCl (pH 7.4), 150 mM NaCl, 1% NP-40, 5 mM EDTA, 5 mM NaF, 2 mM Na3VO4, 1 mM PMSF, 5 μg/mL leupeptin, and 5 μg/mL aprotinin. For detection of phospho-IκBα, IκBα, phospho-MAPK, phospho-STAT3, ERK2 or alpha-tubulin, cell lysates were subjected SDS-PAGE, transferred to PVDF membrane (Bio-Rad Laboratories, Hercules, Calif.), and immunoblotted with anti-phospho-IκBα, -IκBα, -phospho-MAPK, or -phospho-STAT3 Abs (Cell Signaling, Beverly, Mass.), and anti-alpha-tubulin (Sigma) Abs.

[3] = tested on: ICAM-1 and VCAM-1 expression on both BMSCs and MM cells; settings: Hideshima et al., Cancer Res. 61:3071 (2001); cited from earlier work
[4] = tested on: IκBα phosphorylation and degradation in MM.1S cells; experiment: Immunoblot of IκBα phosphorylation and degradation triggered by TNFα in MM.1S cells; assay type: cell-based, human; settings: Dex 1 μM 18 h, PS-341 5 μM 60 min, compound 1 10 μM 90 min, TNFα 5 ng/mL 5 min, FIG. 7; for TNFα-induced phosphorylation of IκBα: presence or absence of IL-6
Experimental: as §2
Inhibition of IκBα phosphorylation by compound 1 was assayed in MM.1S and patient MM cells triggered by TNFα. […] To study the dose-dependent effect of compound 1, MM.1S cells were pre-treated with 1.25-40 μM compound 1 for 90 min, and then stimulated by TNFα (5 ng/mL).
The effect of Dex, compound 1, PS-341 and/or IL-6 on TNFα induced phosphorylation of IκBα in MM.1S cells was next examined. […] In contrast compound 1, in the presence or absence of IL-6, inhibits phosphorylation of IκBα. Dex inhibits TNFα-induced degradation of IκBα, whereas IL-6 blocks this effect. Both PS-341 and compound 1 inhibit degradation of IκBα, in the presence or absence of IL-6.

MM.1S cells [5] = settings: previously reported, Hideshima et al. Blood 96:2943 (2000); cited from earlier work
MM.1S cells [6] = experiment: DNA synthesis ([3H]-TdR uptake) in MM.1S cells with Dex, IL-6, Thal or IMiD3; assay type: cell-based, human; settings: IMiD3 0.25-1 μM, dose dependent, 48 h; FIG. 9
Experimental: as §1

Compound | p42/44 MAPK phosphorylation [2] | TNFα-induced phosphorylation of IκBα [4] | MM.1S cell growth (MM.1S cells [5]) | further results
CC(C)C[C@H](NC(=O)[C@H](Cc1ccccc1)NC(=O)c1cnccn1)B(O)O [PS-341, reference compound] | inhibits | does not inhibit; also recorded: enhances |  | [3H]-TdR uptake in all cell lines tested [1]: completely inhibited; TNFα induction of ICAM-1 and VCAM-1 expression [3]: blocks induction; TNFα-induced degradation of IκBα [4]: inhibit
O=C1CCC(N2C(=O)c3ccccc3C2=O)C(=O)N1 (stereo not shown) [Thalidomide] |  |  | inhibit | 
COc1cccc(-c2cc(=O)c3ccccc3o2)c1N [PD98059] | selectively inhibits |  |  | 
C[C@@H]1C[C@H]2[C@@H]3CCC4=CC(=O)C=C[C@]4(C)[C@@]3(F)[C@@H](O)C[C@]2(C)[C@@]1(O)C(=O)CO [Dex, dexamethasone, reference compound] |  | does not inhibit |  | 
Nc1cccc2c1CN(C1CCC(=O)NC1=O)C2=O (stereo not shown) [IMiD3, reference compound] |  |  | inhibit | DNA synthesis in MM.1S cell (MM.1S cells [6]): significantly (p<0.001) inhibited
